ChEMBL document CHEMBL3352123, “Structure activity relationship study of curcumin analogues toward the amyloid-beta aggregation inhibitor” (Bioorg Med Chem Lett, 2014)
Converted amounts (≈) assume the structure as drawn.

How the values were obtained:
[1] = target: Amyloid-beta precursor protein (Homo sapiens) (UniProt P05067); test: Inhibition of amyloid beta-42 self-aggregation (unknown origin) at 25 uM after 20 hrs by ThT fluorescence assay
[2] = Aqueous solubility of the compound after 12 hrs by shake-flask method; type: physicochemical; details: buffer

Chain of Amyloid-beta precursor protein (Homo sapiens) (P05067 whole entry): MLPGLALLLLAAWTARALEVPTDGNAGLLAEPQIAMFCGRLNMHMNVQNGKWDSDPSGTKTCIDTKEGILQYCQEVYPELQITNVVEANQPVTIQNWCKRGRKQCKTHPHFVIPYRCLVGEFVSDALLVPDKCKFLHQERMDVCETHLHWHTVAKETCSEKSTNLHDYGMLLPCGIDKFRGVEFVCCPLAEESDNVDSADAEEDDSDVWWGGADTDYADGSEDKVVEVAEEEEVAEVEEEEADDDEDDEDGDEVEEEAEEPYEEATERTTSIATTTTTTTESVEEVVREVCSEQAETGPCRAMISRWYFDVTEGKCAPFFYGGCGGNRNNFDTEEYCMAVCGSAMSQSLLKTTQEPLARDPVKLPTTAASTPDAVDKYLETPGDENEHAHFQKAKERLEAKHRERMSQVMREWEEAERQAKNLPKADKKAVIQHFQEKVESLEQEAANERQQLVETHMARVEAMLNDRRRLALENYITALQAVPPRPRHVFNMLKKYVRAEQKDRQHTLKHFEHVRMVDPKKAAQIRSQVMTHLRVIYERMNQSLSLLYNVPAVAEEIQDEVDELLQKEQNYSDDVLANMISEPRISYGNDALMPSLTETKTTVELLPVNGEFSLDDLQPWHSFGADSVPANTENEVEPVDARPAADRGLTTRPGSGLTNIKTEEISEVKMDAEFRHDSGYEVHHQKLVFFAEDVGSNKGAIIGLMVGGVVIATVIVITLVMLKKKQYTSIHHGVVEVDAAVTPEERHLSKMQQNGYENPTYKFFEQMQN

| SMILES | inhibition [1] [%] | solubility thermodynamic at 12 h [2] [µM] |
| --- | --- | --- |
| O=C(/C=C/c1cccc(O)c1)CC(=O)/C=C/c1cccc(O)c1 | 79 |  |
| COc1cc(/C=C/C(=O)CC(=O)/C=C/c2ccc(O)c(OC)c2)ccc1O [CURCUMIN] | 80 | 0.19 (≈ 0.07 µg/mL) |
| Oc1cccc(/C=C/c2cc(/C=C/c3ccc(O)c(O)c3)n[nH]2)c1 |  | 10 (≈ 3.2 µg/mL) |
| COc1ccc(/C=C/C(=O)/C=C(O)/C=C/c2ccc(OC)c(OC)c2)cc1OC | 0 |  |
| Oc1ccc(/C=C/c2cc(/C=C/c3ccccc3O)[nH]n2)cc1O | 47 | 16 (≈ 5.13 µg/mL) |
| COc1cc(/C=C/C(=O)C(C)(C)C(=O)/C=C/c2ccc(O)c(OC)c2)ccc1O | 30 | 12 (≈ 4.76 µg/mL) |
| COc1cc(/C=C/c2cc(/C=C/c3ccc(O)c(OC)c3)[nH]n2)ccc1O [CURCUMIN PYRAZOLE] | 51 | 1.2 (≈ 0.437 µg/mL) |
| O=C(/C=C/c1ccccc1O)CC(=O)/C=C/c1ccccc1O | 80 |  |
| Oc1ccc(/C=C/c2cc(/C=C/c3ccc(O)c(O)c3)[nH]n2)cc1O | 90 | 98 (≈ 33 µg/mL) |
| O=C(/C=C/c1ccc(O)cc1)CC(=O)/C=C/c1ccc(O)cc1 | 75 |  |
| COc1ccccc1/C=C/C(=O)CC(=O)/C=C/c1ccc(O)c(O)c1 | 100 | 0.12 (≈ 0.0406 µg/mL) |

The next lines start with the values.

| inhibition [1] [%] | solubility thermodynamic at 12 h [2] [µM] | SMILES |
| --- | --- | --- |
| 95 |  | COc1cc(/C=C/C(=O)CC(=O)/C=C/c2ccc(O)c(O)c2)cc(OC)c1OC |
| 100 | 50 (≈ 17.8 µg/mL) | O=C(/C=C/c1ccc(O)c(O)c1)CC(=O)/C=C/c1cc(O)c(O)c(O)c1 |
| 96 |  | N#Cc1cccc(/C=C/C(=O)CC(=O)/C=C/c2ccc(O)c(O)c2)c1 |
| 89 | 0.66 (≈ 0.214 µg/mL) | O=C(/C=C/c1ccc(O)cc1)CC(=O)/C=C/c1ccc(O)c(O)c1 |
| 100 | 31 (≈ 10.1 µg/mL) | O=C(/C=C/c1ccc(O)c(O)c1)CC(=O)/C=C/c1ccccc1O |
| 95 | 0.009 (≈ 0.00305 µg/mL) | COc1ccc(/C=C/C(=O)CC(=O)/C=C/c2ccc(O)c(O)c2)cc1 |
| 73 | 47 (≈ 16 µg/mL) | O=C(/C=C/c1cc(O)c(O)c(O)c1)CC(=O)/C=C/c1ccccc1O |
| 97 |  | O=C(/C=C/c1cccc([N+](=O)[O-])c1)CC(=O)/C=C/c1ccc(O)c(O)c1 |
| 95 | 0.11 (≈ 0.0372 µg/mL) | COc1cccc(/C=C/C(=O)CC(=O)/C=C/c2ccc(O)c(O)c2)c1 |
| 99 | 2.4 (≈ 0.817 µg/mL) | O=C(/C=C/c1ccc(O)c(O)c1)CC(=O)/C=C/c1ccc(O)c(O)c1 [DIDEMETHYLCURCUMIN] |
| 100 | 5.4 (≈ 2 µg/mL) | COc1c(O)cc(/C=C/C(=O)CC(=O)/C=C/c2ccc(O)c(O)c2)cc1O |
| 99 | 6.2 (≈ 2.01 µg/mL) | O=C(/C=C/c1cccc(O)c1)CC(=O)/C=C/c1ccc(O)c(O)c1 |
| 46 | 6.2 (≈ 2.31 µg/mL) | O=C(/C=C/c1cc(O)c(O)c(O)c1)CC(=O)/C=C/c1cc(O)c(O)c(O)c1 |
